What was measured:
[1] = tested on: EMT6 triple-negative breast cancer cells; test: In vivo anti-tumour activity in mice with a breast cancer cell syngeneic allograft; settings: 150 mg/kg QD PO
Experimental: (§1) Murine triple-negative breast cancer EMT6 tumour cells (ATCC® CRL-2755™) and colorectal cancer CT26.WT cells (ATCC® CRL-2638™) were cultured and expanded in RPMI-1640 medium (Roswell Park Memorial Institute Medium-1640) with L-glutamine and sodium bicarbonate (Sigma-Aldrich, Macquarie Park, NSW, Australia) supplemented with 10% heat-inactivated foetal bovine serum (FBS). Cells were cultured in an incubator at 5% CO2 37° C.
(§2) EMT6 cells were harvested and re-suspended in a 1:1 mixture of Matrigel™ (#354234; Corning Life Sciences, Corning, NY, United States of America) and serum-free RPMI-1640 medium, and thereafter injected sub-cutaneously (sc) (7×10^5 cells in a volume of […]) into the right flank of each female BALB/c mouse. After the tumour volume reached ˜100 mm^3, the mice were randomised into two groups (n=4/group) and given vehicle (1% CMC in water), or compound 1 (150 mg/kg) once daily by oral administration (QD PO). […] The level of phosphorylated RB (p-S807/11) was also found to be reduced in the EMT6 tumours collected two hours post-final dose, confirming CDK4/6 inhibition (FIG. 1B). A reduction in the […], PDL-1, in the spleen samples of the mice isolated two hours post-final dose was also observed, indicating the immunotherapeutic potential of compound 1 (FIG. 1C).

[2] = tested on: phosphorylated RB (p-S807/11); test: Phosphorylated RB level in EMT6 tumours of treated mice; assay type: in vivo, mouse (female BALB/c); settings: EMT6 tumours collected two hours post-final dose, 150 mg/kg QD PO
Experimental: as §2

[3] = tested on: CT26.WT colorectal cancer cells; test: In vivo anti-tumour activity in mice with a colorectal cancer cell syngeneic allograft (first experiment); parameters: species or system mouse (female BALB/c)
Experimental: as §1
Similarly, mice bearing CT26.WT colorectal cancer cells were matched and randomised to vehicle or treatment groups (n=8/group). Female BALB/c mice with mean tumour volume ˜100 mm^3 were given vehicle (distilled water QD PO), compound 1 (100 mg/kg QD PO), an anti-PD1 antibody (RMP1-14-derived mouse monoclonal antibody; Assay Matrix Pty Ltd, Ivanhoe North, VIC, Australia), 200 μg/mouse/week by intraperitoneal (ip) administration) or compound 1 plus anti-PD-1 antibody.

[4] = tested on: CD3+, CD4+, CDK8+ and CD45+ T-cells; test: Immune markers (T cell population in spleen) in CT26.WT-bearing treated mice; assay type: in vivo, mouse
Experimental: (§3) In another experiment, mice bearing CT26.WT colorectal cancer cells were treated with vehicle (distilled water QD PO), compound 1 (100 mg/kg QD PO), an anti-PD-1 antibody ([…] ip), or compound 1 plus the anti-PD-1 antibody.

PDL-1 = test: PD-L1 level in samples of EMT6-bearing treated mice; assay type: in vivo, mouse (female BALB/c); settings: spleen samples isolated two hours post-final dose, 150 mg/kg QD PO
Experimental: as §2

[5] = tested on: CT26.WT colorectal cancer cells; test: In vivo anti-tumour activity in CT26.WT syngeneic mouse model (second experiment)
Experimental: as §1, §3

| SMILES | weight loss or overt toxicity ([1]; EMT6-bearing mice, throughout the study) | level of phosphorylated RB (p-S807/11) [2] | tumour growth inhibition (% TGI), used alone ([3]; 100 mg/kg QD PO alone, day 21 of dosing) | tumour growth inhibition (% TGI), combination with anti-PD-1 antibody ([3]; 100 mg/kg QD PO plus anti-PD-1 antibody 200 μg/mouse/week ip, day 21 of dosing) | survival of the mice, combination with anti-PD-1 antibody ([3]; 100 mg/kg QD PO plus anti-PD-1 antibody, p<0.001) | survival of the mice, single agent ([3]; 100 mg/kg QD PO, p<0.001) | level of immune markers CD3+, CD4+, CDK8+ and CD45+ T-cells [4] | level of immune checkpoint protein ligand PDL-1 (PDL-1) | TGI, used alone ([5]; 100 mg/kg QD PO alone, day 15 of dosing) | TGI, combination with anti-PD-1 antibody ([5]; 100 mg/kg QD PO plus anti-PD-1 antibody (150 g/mouse/week ip), day 15 of dosing) | anti-tumour efficacy of combination compared with anti-PD-1 alone ([5]; compound 1 plus anti-PD-1 antibody, p=0.03) | tumour growth inhibition (% TGI) ([1]; EMT6 allograft, final day of tumour measurement) |
| --- | --- | --- | --- | --- | --- | --- | --- | --- | --- | --- | --- | --- |
| CCN1CCN(Cc2ccc(Nc3ncc(F)c(-c4sc(NC5CCCC5)nc4C)n3)nc2)CC1 [Compound 1, N-cyclopentyl-5-(2-((5-((4-ethylpiperazin-1-yl)methyl)pyridin-2-yl)amino)-5-fluoropyrimidin-4-yl)-4-methylthiazol-2-amine] | No significant weight loss or any overt toxicity | reduced | 75% | 91% | significantly prolong | significantly prolong | increased level | reduction | 77% | 91% | more effective |  |
| CNc1nc(C)c(-c2nc(Nc3ccc(CN4CCN(C(C)C)CC4)cn3)ncc2F)s1 [Compound 12, 5-(5-fluoro-2-((5-((4-isopropylpiperazin-1-yl)methyl)pyridin-2-yl)amino)pyrimidin-4-yl)-N,4-dimethylthiazol-2-amine] |  |  |  |  |  |  |  |  |  |  |  | 47% |
